Among the data in patent publication US10501449B2 (priority 2018, dated 2019) are IC50 and inhibition values, retold here.

SMILES strings stand for the structures. pIC50: −log10 of the molar value.

In general, pIC50 refers to −log10 of the IC50, conventionally taken in molar units.

The target in one data set is hROMK (human Kir1.1) (Homo sapiens (Human), UniProt P48048). Nature of the data set: cell-based. To be noted: CHO T-Rex hROMK stable cell line; thallium flux; 10-point concentration response curve; read-out: Human ROMK Th Flux IC50.
Another data set has as its target hERG channels (Homo sapiens (Human), UniProt Q12809). Nature of the data set: hERG Manual Patch Clamp Assay. The data set is classed as cell-based. The note with it: human, HEK 293 cells stably expressing hERG channels, pH 7.4, 1 uM, read-out: hERG EP % Inh @ 1 uM. A general note: The hERG channel carries a current that helps repolarise heart muscle cells.

hROMK (human Kir1.1), sequence (P48048 whole entry): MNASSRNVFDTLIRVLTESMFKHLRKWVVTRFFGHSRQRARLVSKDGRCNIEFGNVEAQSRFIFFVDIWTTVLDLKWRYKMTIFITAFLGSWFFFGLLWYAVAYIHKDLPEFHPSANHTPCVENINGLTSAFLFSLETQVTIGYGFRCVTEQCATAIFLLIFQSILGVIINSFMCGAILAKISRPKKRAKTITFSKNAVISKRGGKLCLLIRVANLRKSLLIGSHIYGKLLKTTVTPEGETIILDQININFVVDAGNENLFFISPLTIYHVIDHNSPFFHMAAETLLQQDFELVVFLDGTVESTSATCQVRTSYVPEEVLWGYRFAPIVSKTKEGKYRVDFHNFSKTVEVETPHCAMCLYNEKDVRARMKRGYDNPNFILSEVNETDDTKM
hERG channels, sequence (Q12809 whole entry): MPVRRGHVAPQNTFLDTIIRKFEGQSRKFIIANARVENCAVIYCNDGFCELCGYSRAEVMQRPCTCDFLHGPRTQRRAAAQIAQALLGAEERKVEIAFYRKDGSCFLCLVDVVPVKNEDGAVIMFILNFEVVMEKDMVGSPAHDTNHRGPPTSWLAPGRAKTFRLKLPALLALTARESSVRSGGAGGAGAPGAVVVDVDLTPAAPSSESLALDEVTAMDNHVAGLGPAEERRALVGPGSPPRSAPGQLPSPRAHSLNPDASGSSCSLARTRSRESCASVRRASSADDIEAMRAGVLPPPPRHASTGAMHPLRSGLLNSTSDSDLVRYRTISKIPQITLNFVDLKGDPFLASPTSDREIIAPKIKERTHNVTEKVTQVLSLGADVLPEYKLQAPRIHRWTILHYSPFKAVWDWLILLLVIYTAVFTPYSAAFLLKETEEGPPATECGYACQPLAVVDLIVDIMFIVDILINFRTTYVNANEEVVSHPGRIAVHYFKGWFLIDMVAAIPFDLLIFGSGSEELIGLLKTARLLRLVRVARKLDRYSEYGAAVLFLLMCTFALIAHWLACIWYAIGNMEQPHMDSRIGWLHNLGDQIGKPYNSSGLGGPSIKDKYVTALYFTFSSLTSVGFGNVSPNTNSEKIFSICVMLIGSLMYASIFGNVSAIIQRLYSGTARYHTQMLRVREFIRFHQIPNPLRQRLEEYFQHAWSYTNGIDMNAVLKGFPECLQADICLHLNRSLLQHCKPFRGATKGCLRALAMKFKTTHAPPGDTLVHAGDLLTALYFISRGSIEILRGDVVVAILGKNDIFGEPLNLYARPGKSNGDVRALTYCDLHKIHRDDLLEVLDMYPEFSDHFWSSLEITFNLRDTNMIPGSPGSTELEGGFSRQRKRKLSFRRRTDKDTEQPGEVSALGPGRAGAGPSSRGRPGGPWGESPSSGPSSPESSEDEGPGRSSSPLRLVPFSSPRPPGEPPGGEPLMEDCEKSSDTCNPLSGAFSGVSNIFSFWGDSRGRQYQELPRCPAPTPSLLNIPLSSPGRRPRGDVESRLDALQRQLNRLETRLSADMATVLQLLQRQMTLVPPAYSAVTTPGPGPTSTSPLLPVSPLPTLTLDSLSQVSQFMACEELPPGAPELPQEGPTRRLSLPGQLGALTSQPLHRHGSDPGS
Procedure for hERG channels: hERG electrophysiology assay: The experimental compounds were assessed for hERG activity on HEK 293 cells stably expressing hERG channels using patch clamp technique. Coverslips plated with hERG expressing cells were placed in the experimental chamber and were perfused with a solution composed of (in mM): 140 NaCl, 4 KCl, 1.8 CaCl2, 1 MgCl2, 10 Glucose, 10 HEPES (pH 7.4, NaOH) at room temperature. Borosilicate patch pipettes had tip resistances of 2-4 Mohms when filled with an internal solution containing: 130 KCl, 1 MgCl2, 1 CaCl2, 10 EGTA, 10 HEPES, 5 ATP-K2 (pH 7.2, KOH). The cells were clamped at −80 mV in whole cell configuration using an Axopatch 200B (Axon instruments, Union City, Calif.) patch clamp amplifier controlled by pClamp (Axon instruments) software. Upon formation of a gigaseal, the following voltage protocol was repeatedly (0.05 Hz) applied to record tail currents: depolarization step from −80 mV to +20 mV for 2 seconds followed by a hyperpolarization step to −65 mV (3 seconds) to elicit tail currents. Compounds were applied after stabilization of tail current. First, tail currents were recorded in presence of extracellular solution alone (control) and subsequently, in extracellular solution containing increasing compound concentrations. Each compound concentration was applied for 2-5 minutes. The percentage inhibition at each concentration was calculated as reduction in peak tail current with respect to the peak tail current recorded in the presence of control solution. Data analysis was performed in a custom made template. The percent inhibitions at different concentrations were plotted to obtain a concentration response curve, which was subsequently fitted with a four parameter equation to calculate hERG IC50 value.

`Cc1nc(-n2ncc(CN3C[C@H](CO)N[C@H](c4ccc5c(c4C)COC5=O)C3)n2)ncc1C#N` [Example 104-I, 2-(4-(((3R,5R)-3-(hydroxymethyl)-5-(4-methyl-1-oxo-1,3-dihydroisobenzofur-an-5-yl)piperazin-1-yl)methyl)-2H-1,2,3-triazol-2-yl)-4-methylpyrimidine-5-carbonitrile]: on hROMK (human Kir1.1), the negative-log IC50 (pIC50) was 7.44. Besides, the inhibition at 1 µM on hERG channels is 3.4%.
On to `COc1cc(-n2cc(CN3CC[C@@H](O)[C@H](c4ccc5c(c4C)COC5=O)C3)cn2)ncc1C#N` [Example 112-I, 6-(4-(((3R,4R)-4-hydroxy-3-(4-methyl-1-oxo-1,3-dihydroisobenzofur-an-5-yl)piperidin-1-yl)methyl)-1H-pyrazol-1-yl)-4-methoxynicotinonit-rile], for which the pIC50 at hROMK (human Kir1.1) is 7.74. Further, the inhibition at 1 µM on hERG channels is 22%.
`Cc1cc(-n2cc(CN3CC(c4ccc5c(c4C)COC5=O)C(O)C(C)(C)C3)cn2)ncc1C#N` (centres unmarked) [Example 116-I, 6-(4-((4-hydroxy-3,3-dimethyl-5-(4-methyl-1-oxo-1,3-dihydroisobenzofuran-5-yl)piperidin-1-yl)methyl)-1H-pyrazol-1-yl)-4-methylnicotinonitrile]: the pIC50 on hROMK (human Kir1.1) was 7.41. For the same molecule, the inhibition at 1 µM at hERG channels was found to be 6.4%.
In the case of `Cc1cc(-n2cnc(CN3C[C@@H](c4ccc5c(c4C)COC5=O)N[C@@H](C)C3)n2)ncc1C#N` [Example 122-I, 4-methyl-6-(3-(((3S,5R)-3-methyl-5-(4-methyl-1-oxo-1,3-dihydroisobenzofuran-5-yl)piperazin-1-yl)methyl)-1H-1,2,4-triazol-1-yl)nicotinonitrile], the negative logarithm of the IC50 (pIC50) at hROMK (human Kir1.1) was 7.30. For the same molecule, on hERG channels, the inhibition at 1 µM is 6.6%.
For `Cc1cc(-c2ncc(CN3CC[C@@H](O)[C@H](c4ccc5c(c4C)COC5=O)C3)s2)ncc1C#N` [Example 125-I, 6-(5-(((3R,4R)-4-hydroxy-3-(4-methyl-1-oxo-1,3-dihydroisobenzofuran-5-yl)piperidin-1-yl)methyl)thiazol-2-yl)-4-methylnicotinonitrile] the same measures were 7.52 and 8.3%.
With `Cc1c([C@@H]2CN(Cc3cnn(-c4ccnc(C(F)(F)F)c4)c3)C[C@H](C)N2)ccc2c1COC2=O` [Example 128-I, 4-methyl-5-((2R,6S)-6-methyl-4-((1-(2-(trifluoromethyl)pyridin-4-yl)-1H-pyrazol-4-yl)methyl)piperazin-2-yl)isobenzofuran-1(3H)-one], the negative-log IC50 (pIC50) at hROMK (human Kir1.1) was 7.18. For the same molecule, the inhibition at 1 µM at hERG channels was 19%.
Regarding `Cc1c([C@@H]2CN(Cc3cnn(-c4ccn(C(F)F)c(=O)c4)c3)C[C@H](C)N2)ccc2c1COC2=O` [Example 129-I, 1-(difluoromethyl)-4-(4-(((3S,5R)-3-methyl-5-(4-methyl-1-oxo-1,3-dihydroisobenzofuran-5-yl)piperazin-1-yl)methyl)-1H-pyrazol-1-yl)pyridin-2(1H)-one], the pIC50 at hROMK (human Kir1.1) was 7.59. In addition, at hERG channels, the inhibition at 1 µM is 32%.
As to `Cc1c([C@@H]2CN(Cc3cn(-c4ccc(C(F)F)nc4)cn3)C[C@H](C)N2)ccc2c1COC2=O` [Example 134-I, 5-((2R,6S)-4-((1-(6-(difluoromethyl)pyridin-3-yl)-1H-imidazol-4-yl)methyl)-6-methylpiperazin-2-yl)-4-methylisobenzofuran-1(3H)-one], the pIC50 on hROMK (human Kir1.1) was 7.37. At hERG channels, the inhibition at 1 µM was 22%.
With `Cc1c([C@@H]2CN(Cc3ccc(-n4ccc(C#N)n4)nc3)CCN2)ccc2c1COC2=O` [Example 136-I, (R)-1-(5-((3-(4-methyl-1-oxo-1,3-dihydroisobenzofuran-5-yl)piperazin-1-yl)methyl)pyridin-2-yl)-1H-pyrazole-3-carbonitrile], at hROMK (human Kir1.1), the negative-log IC50 (pIC50) was 7.55. Moreover, the inhibition at 1 µM on hERG channels came to 29%.
Regarding `CCOc1cc(-n2cc(CN3CCN[C@H](c4ccc5c(c4C)COC5=O)C3)cn2)ncc1C#N` [Example 137-I, (R)-4-ethoxy-6-(4-((3-(4-methyl-1-oxo-1,3-dihydroisobenzofuran-5-yl)piperazin-1-yl)methyl)-1H-pyrazol-1-yl)nicotinonitrile], at hROMK (human Kir1.1), the pIC50 is 7.59. Also, the inhibition at 1 µM on hERG channels is 23%.
Take `Cc1c([C@@H]2CN(Cc3cnn(-c4cc(OC(C)C)c(C#N)cn4)c3)CCN2)ccc2c1COC2=O` [Example 140-I, (R)-4-isopropoxy-6-(4-((3-(4-methyl-1-oxo-1,3-dihydroisobenzofuran-5-yl)piperazin-1-yl)methyl)-1H-pyrazol-1-yl)nicotinonitrile]: on hROMK (human Kir1.1), the negative logarithm of the IC50 (pIC50) is 7.59. The inhibition at 1 µM at hERG channels came to 49%.
Take `Cc1cn(-c2cc(C)c(CN3CCN[C@H](c4ccc5c(c4C)COC5=O)C3)cn2)cn1` [Example 141-I, (R)-4-methyl-5-(4-((4-methyl-6-(4-methyl-1H-imidazol-1-yl)pyridin-3-yl)methyl)piperazin-2-yl)isobenzofuran-1(3H)-one]: on hROMK (human Kir1.1), the negative-log IC50 (pIC50) is 7.16. At hERG channels, the inhibition at 1 µM stood at 7.1%.
Take `Cc1cn(-c2ccc(CN3CCN[C@H](c4ccc5c(c4C)COC5=O)C3)c(C)n2)cn1` [Example 142-I, (R)-4-methyl-5-(4-((2-methyl-6-(4-methyl-1H-imidazol-1-yl)pyridin-3-yl)methyl)piperazin-2-yl)isobenzofuran-1(3H)-one]: at hROMK (human Kir1.1), the negative-log IC50 (pIC50) is 7.12. For the same molecule, the inhibition at 1 µM on hERG channels was determined as 8.5%.
Consider `COc1cc(-c2ccc(CN3CCN[C@H](c4ccc5c(c4C)COC5=O)C3)c(OC)n2)ncc1C#N` [Example 143-I, (R)-4,6′-dimethoxy-5′-((3-(4-methyl-1-oxo-1,3-dihydroisobenzofuran-5-yl)piperazin-1-yl)methyl)-[2,2′-bipyridine]-5-carbonitrile], for which the negative logarithm of the IC50 (pIC50) at hROMK (human Kir1.1) is 7.20. Further, the inhibition at 1 µM at hERG channels stood at 49%.
For `Cc1cn(-c2ncc(CN3CCN[C@H](c4ccc5c(c4C)COC5=O)C3)cc2F)cn1` [Example 144-I, (R)-5-(4-((5-fluoro-6-(4-mehtyl-1H-imidazol-1-yl)pyridin-3-yl)methyl)piperazin-2-yl)-4-methylisobenzofuran-1(3H)-one] the same measures were 7.62 and 7.8%.
For `Cc1cc(-n2cc(CN3CCN[C@H](c4ccc5c(c4C)COC5=O)C3)c(C)n2)ncc1C#N` [Example 145-I, (R)-4-methyl-6-(3-methyl-4-((3-(4-methyl-1-oxo-1,3-dihydroisobenzofuran-5-yl)piperazin-1-yl)methyl)-1H-pyrazol-1-yl)nicotinonitrile], the negative-log IC50 (pIC50) at hROMK (human Kir1.1) was 7.82. Moreover, on hERG channels, the inhibition at 1 µM worked out at 25%.
For `Cc1cc(-n2ncc(CN3CCN[C@H](c4ccc5c(c4C)COC5=O)C3)c2C)ncc1C#N` [Example 146-I, (R)-4-methyl-6-(5-methyl-4-((3-(4-methyl-1-oxo-1,3-dihydroisobenzofuran-5-yl)piperazin-1-yl)methyl)-1H-pyrazol-1-yl)nicotinonitrile] the same measures were 7.60 and 16%.
For the molecule `COc1cc(-n2cnc(C)c2)ncc1CN1CCN[C@H](c2ccc3c(c2C)COC3=O)C1` [Example 149-I, (R)-5-(4-((4-methoxy-6-(4-methyl-1H-imidazol-1-yl)pyridin-3-yl)methyl)piperazin-2-yl)-4-methylisobenzofuran-1(3H)-one], the negative logarithm of the IC50 (pIC50) on hROMK (human Kir1.1) is 7.28. On hERG channels, the inhibition at 1 µM worked out at 7.6%.
The matching figures for `Cc1ncn(-c2ncc(CN3CCN[C@H](c4ccc5c(c4C)COC5=O)C3)cn2)c1C(F)F` [Example 150-I, (R)-5-(4-((2-(5-(difluoromethyl)-4-methyl-1H-imidazol-1-yl)pyrimidin-5-yl)methyl)piperazin-2-yl)-4-methylisobenzofuran-1(3H)-one]: 7.00 and 14%.
Consider `COc1cc(N2CC(CN3CCN[C@H](c4ccc5c(c4C)COC5=O)C3)CC2=O)ncc1C#N` (stereo partly drawn) [Example 159-I, 4-methoxy-6-(4-(((R)-3-(4-methyl-1-oxo-1,3-dihydroisobenzofuran-5-yl)piperazin-1-yl)methyl)-2-oxopyrrolidin-1-yl)nicotinonitrile], for which the pIC50 at hROMK (human Kir1.1) is 7.80. Further, the inhibition at 1 µM at hERG channels was 21%.
`Cc1cc(-n2cnc(CN3CC[C@@H](O)[C@H](c4ccc5c(c4C)COC5=O)C3)c2)ncc1C#N` [Example 163-I, 6-(4-(((3R,4R)-4-hydroxy-3-(4-methyl-1-oxo-1,3-dihydroisobenzofuran-5-yl)piperidin-1-yl)methyl)-1H-imidazol-1-yl)-4-methylnicotinonitrile]: at hROMK (human Kir1.1), the negative-log IC50 (pIC50) was 7.54. In addition, the inhibition at 1 µM at hERG channels was found to be 4.5%.
For the molecule `Cc1c([C@@H]2CN(Cc3cnn(-c4cc(N5CCOC5=O)ccn4)c3)CCN2)ccc2c1COC2=O` [Example 185-I, (R)-3-(2-(4-((3-(4-methyl-1-oxo-1,3-dihydroisobenzofuran-5-yl)piperazin-1-yl)methyl)-1H-pyrazol-1-yl)pyridin-4-yl)oxazolidin-2-one], the pIC50 on hROMK (human Kir1.1) was 7.00. For the same molecule, at hERG channels, the inhibition at 1 µM was 9.6%.
In the case of `COc1cc(-n2cc(CCN3C[C@@H](c4ccc5c(c4C)COC5=O)N[C@@H](C)C3)cn2)ncc1C#N` [Example 192-I, 4-methoxy-6-(4-(2-((3S,5R)-3-methyl-5-(4-methyl-1-oxo-1,3-dihydroisobenzofuran-5-yl)piperazin-1-yl)ethyl)-1H-pyrazol-1-yl)nicotinonitrile], the negative logarithm of the IC50 (pIC50) on hROMK (human Kir1.1) was 7.80. For the same molecule, at hERG channels, the inhibition at 1 µM turned out to be 46%.
`COc1ncnc(-n2cc(CN3C[C@@H](c4ccc5c(c4C)COC5=O)N[C@@H](C)C3)cn2)n1` [Example 194-I, 5-((2R,6S)-4-((1-(4-methoxy-1,3,5-triazin-2-yl)-1H-pyrazol-4-yl)methyl)-6-methylpiperazin-2-yl)-4-methylisobenzofuran-1(3H)-one]: the pIC50 on hROMK (human Kir1.1) is 7.22. Further, on hERG channels, the inhibition at 1 µM was determined as 11%.
With `Cc1c([C@@H]2CN(Cc3cnn(-c4cc(C#N)ccn4)c3)CCN2)ccc2c1COC2=O` [Example 198-I, (R)-2-(4-((3-(4-methyl-1-oxo-1,3-dihydroisobenzofuran-5-yl)piperazin-1-yl)methyl)-1H-pyraozl-1-yl)isonicotinonitrile], at hROMK (human Kir1.1), the negative-log IC50 (pIC50) is 7.08. Further, the inhibition at 1 µM on hERG channels came out at 0%.
